What was measured:
[1] = 101 kPa, Liquid; for mass density: Vibrating tube method
[2] = xn = mol fraction of the nth substance listed; conditions: 101 kPa, Liquid, x1 = 1; for mass density: Vibrating tube method

NCCO.O=CO [2-hydroxyethylammonium formate]
[1]
Conditions | mass density [kg/m3] | speed of sound [m/s]
288.15 K | 1183.57 | 1733.9
290.65 K | 1181.81 | 1727.4
293.15 K | 1180.04 | 1721.3
295.65 K | 1178.27 | 1715.1
298.15 K | 1176.49 | 1709
300.65 K | 1174.71 | 1702.9
303.15 K | 1172.94 | 1696.8
305.65 K | 1171.16 | 1690.8
308.15 K | 1169.39 | 1684.8
310.65 K | 1167.62 | 1678.7
313.15 K | 1165.84 | 1672.7
315.65 K | 1164.06 | 1666.7
318.15 K | 1162.29 | 1660.8
320.65 K | 1160.51 | 1654.8
323.15 K | 1158.73 | 1648.9

CCO [ethanol]
[1]
Conditions | mass density [kg/m3] | speed of sound [m/s]
288.15 K | 794.444 | 1178.2
290.65 K | 792.305 | 1169.1
293.15 K | 790.158 | 1160.3
295.65 K | 788.027 | 1151.7
298.15 K | 785.89 | 1143.1
300.65 K | 783.729 | 1134.6
303.15 K | 781.591 | 1126.2
305.65 K | 779.402 | 1117.8
308.15 K | 777.238 | 1109.4
310.65 K | 775.055 | 1101
313.15 K | 772.846 | 1092.7
315.65 K | 770.625 | 1084.3
318.15 K | 768.482 | 1075.9
320.65 K | 766.198 | 1067.5
323.15 K | 764.019 | 1058.8

CCO [ethanol] + NCCO.O=CO
[2]
Conditions | mass density [kg/m3] | speed of sound [m/s]
288.15 K | 794.444 | 1178.2
290.65 K | 792.305 | 1169.1
293.15 K | 790.158 | 1160.3
295.65 K | 788.027 | 1151.7
298.15 K | 785.89 | 1143.1
300.65 K | 783.729 | 1134.6
303.15 K | 781.591 | 1126.2
305.65 K | 779.402 | 1117.8
308.15 K | 777.238 | 1109.4
310.65 K | 775.055 | 1101
313.15 K | 772.846 | 1092.7
315.65 K | 770.625 | 1084.3
318.15 K | 768.482 | 1075.9
320.65 K | 766.198 | 1067.5
323.15 K | 764.019 | 1058.8

CO [methanol]
[1]
Conditions | mass density [kg/m3] | speed of sound [m/s]
288.15 K | 795.775 | 1134.5
290.65 K | 793.495 | 1126.2
293.15 K | 791.149 | 1118
295.65 K | 788.811 | 1109.8
298.15 K | 786.463 | 1101.6
300.65 K | 784.102 | 1093.4
303.15 K | 781.764 | 1085.5
305.65 K | 779.385 | 1077.3
308.15 K | 777.026 | 1069.2
310.65 K | 774.659 | 1061.1
313.15 K | 772.261 | 1052.9
315.65 K | 769.86 | 1044.9
318.15 K | 767.541 | 1036.7
320.65 K | 765.074 | 1028.6
323.15 K | 762.738 | 1020.5

CO [methanol] + NCCO.O=CO
[2]
Conditions | mass density [kg/m3] | speed of sound [m/s]
288.15 K | 795.775 | 1134.5
290.65 K | 793.495 | 1126.2
293.15 K | 791.149 | 1118
295.65 K | 788.811 | 1109.8
298.15 K | 786.463 | 1101.6
300.65 K | 784.102 | 1093.4
303.15 K | 781.764 | 1085.5
305.65 K | 779.385 | 1077.3
308.15 K | 777.026 | 1069.2
310.65 K | 774.659 | 1061.1
313.15 K | 772.261 | 1052.9
315.65 K | 769.86 | 1044.9
318.15 K | 767.541 | 1036.7
320.65 K | 765.074 | 1028.6
323.15 K | 762.738 | 1020.5

O [water] + NCCO.O=CO
[2]
Conditions | mass density [kg/m3] | speed of sound [m/s]
290.65 K | 998.68 | 1474.7
295.65 K | 997.65 | 1489.9
300.65 K | 996.37 | 1503.4
305.65 K | 994.86 | 1515.1
310.65 K | 993.15 | 1525
313.15 K | – | 1529.3
315.65 K | 991.24 | 1533.2
318.15 K | – | 1536.6
320.65 K | 989.15 | 1539.6
323.15 K | 988.04 | 1542.1

— the NIST ThermoML archive (doi:10.1016/j.jct.2007.05.011)
